The record followed here is ChEMBL document CHEMBL3872241, “Synthesis and bioactivity evaluation of 2,3-diaryl acrylonitrile derivatives as potential anticancer agents” (Bioorg Med Chem Lett, 2017).

pIC50: −log10 of the molar value.

Data set [1] is described as follows: Cytotoxicity against human HCT116 cells assessed as cell growth inhibition after 48 hrs by MTT assay. In kind it is functional, cell-based. The following applies: HCT-116, 48 h.
A short description of data set [2]: Cytotoxicity against human HeLa cells assessed as cell growth inhibition after 48 hrs by MTT assay. In kind it is functional, cell-based.
The nature of data set [3]: Cytotoxicity against human Bel7402 cells assessed as cell growth inhibition after 48 hrs by MTT assay. The following applies: Bel-7402, 48 h. In kind it is functional, cell-based.
Data set [4] in a line: Cytotoxicity against human L02 cells assessed as cell growth inhibition after 48 hrs by MTT assay. It counts as toxicity, cell-based.
Data set [5] can be described thus: Cytotoxicity against human HCT116 cells assessed as cell growth inhibition at 100 uM after 48 hrs by MTT assay. It counts as functional. The note with it: HCT-116, 48 h, read-out: GI.
A short description of data set [6]: Cytotoxicity against human HeLa cells assessed as cell growth inhibition at 100 uM after 48 hrs by MTT assay. It counts as functional. The note with it: read-out: GI.
The nature of data set [7]: Cytotoxicity against human Bel7402 cells assessed as cell growth inhibition at 100 uM after 48 hrs by MTT assay. The following applies: Bel-7402, 48 h, read-out: GI. It counts as functional.
Data set [8] is described as follows: Cytotoxicity against human L02 cells assessed as cell growth inhibition at 100 uM after 48 hrs by MTT assay. In kind it is toxicity, cell-based. The following applies: read-out: GI.
Data set [9] has as its system HCT-116. Put plainly: Selectivity index, ratio of IC50 for human L02 cells to IC50 for human HCT116 cells. In kind it is functional.
Data set [10] relates to Bel-7402. In words: Selectivity index, ratio of IC50 for human L02 cells to IC50 for human Bel7402 cells. It counts as functional.

Consider `COc1cc(OC)cc(/C(C#N)=C/c2cc(OC)c(OC)c(OC)c2)c1`, for which the negative logarithm of the IC50 (pIC50) in data set [1], in [2] and in [3] was less than 4.00 in each case. Besides, the IC50 at 48 h in data set [4] is greater than 100 µM. Besides, the inhibition of growth at 100 µM in data set [5] was 24.1%; in data set [6], 24.9%; in data set [7], 22.3%. The inhibition at 48 h, 100 µM in data set [8] stood at 11.6%.
With `COc1cc(OC)cc(/C(C#N)=C/c2c(F)cccc2Cl)c1`, the pIC50 in data set [1], in [2] and in [3] was less than 4.00 throughout. Moreover, the IC50 at 48 h in data set [4] is greater than 100 µM. In addition, the values for the inhibition of growth at 100 µM in data set [5], in data set [6] and in data set [7] were 32.9%, 35.9% and 11.1%, respectively. Also, the inhibition at 48 h, 100 µM in data set [8] is 41.8%.
Turning to `COc1cc(OC)cc(/C(C#N)=C/c2cccs2)c1`, the pIC50 is 4.50 in [1], less than 4.00 in data set [2] and 4.44 in [3]. Further, the half-inhibitory concentration (IC50) at 48 h in [4] was greater than 100 µM. Besides, the “Ratio IC50” value is reported as greater than 3.16 in data set [9] and greater than 2.73 in data set [10]. In addition, the inhibition of growth at 100 µM in [6] was 42.2%. For the same compound, the inhibition at 48 h, 100 µM in [8] came to 41.7%.
For the compound `COc1cc(OC)cc(/C(C#N)=C/c2cccc(F)c2)c1`, the pIC50 in data set [1] is 4.42; in data set [2] it was less than 4.00; in data set [3], 4.21. Further, in data set [4], the 50% inhibitory concentration (IC50) at 48 h was 96 µM. Also, the “Ratio IC50” value in data set [9] is listed as greater than 2.63; in data set [10], greater than 1.63. Besides, the inhibition of growth at 100 µM in [6] came to 41.7%. Moreover, the inhibition at 48 h, 100 µM in data set [8] was 96%.
Consider `CCCCOc1ccc(/C=C(\C#N)c2cc(OC)cc(OC)c2)cc1`, for which the pIC50 in data set [1], in data set [2] and in data set [3] was less than 4.00 in each case. Also, in data set [4], the IC50 at 48 h is greater than 100 µM. Besides, the inhibition of growth at 100 µM in [5] came to 45%; in [6], 18.6%; in data set [7], 15.4%. The inhibition at 48 h, 100 µM in [8] worked out at 35.7%.
On to `COc1cc(OC)cc(/C(C#N)=C/c2ccc(C)cc2)c1`, for which the pIC50 in data set [1] is 5.70; in data set [2] it was less than 4.00; in data set [3], 6.23. Moreover, in data set [4], the concentration for half-maximal inhibition (IC50) at 48 h was greater than 100 µM. For the same compound, the results for the “Ratio IC50” value in data set [9] and in data set [10] were greater than 50 and greater than 169.49, respectively. In data set [6], the inhibition of growth at 100 µM was 38.6%. The inhibition at 48 h, 100 µM in data set [8] is 23.1%.
Turning to `COc1cc(OC)cc(/C(C#N)=C/c2ccc(OCC(C)C)cc2)c1`, the pIC50 in data set [1], in data set [2] and in [3] was less than 4.00 throughout. Also, the 50% inhibitory concentration (IC50) at 48 h in data set [4] is greater than 100 µM. In addition, the inhibition of growth at 100 µM worked out at 32.3% in [5], 22.4% in data set [6] and 7.6% in data set [7]. Besides, the inhibition at 48 h, 100 µM in data set [8] stood at 13.6%.
In the case of `CCc1ccc(/C=C(\C#N)c2cc(OC)cc(OC)c2)cc1`, the pIC50 in [1] was 5.89; in data set [2], less than 4.00; in data set [3], 6.46. Moreover, the 50% inhibitory concentration (IC50) at 48 h in data set [4] is greater than 100 µM. In addition, the figures for the “Ratio IC50” value in data set [9] and in data set [10] were greater than 76.92 and greater than 285.71, respectively. Moreover, the inhibition of growth at 100 µM in data set [6] worked out at 40.6%. The inhibition at 48 h, 100 µM in [8] came out at 32.8%.
In the case of `CCCOc1ccccc1/C=C(\C#N)c1cc(OC)cc(OC)c1`, the pIC50 in [1], in data set [2] and in data set [3] was less than 4.00 in each case. In addition, in [4], the 50% inhibitory concentration (IC50) at 48 h was greater than 100 µM. The inhibition of growth at 100 µM in data set [5] is 27.7%; in data set [7], 4.9%. Besides, the inhibition at 48 h, 100 µM in data set [8] came out at 6.4%.
For `COc1cc(OC)cc(/C(C#N)=C/c2ccc(Cl)cc2)c1`, the negative-log IC50 (pIC50) is 4.36 in [1], 4.80 in data set [2] and 5.09 in [3]. The IC50 at 48 h in data set [4] is greater than 100 µM. Moreover, the “Ratio IC50” value in [9] was greater than 2.31; in data set [10] it was greater than 12.43. Besides, the inhibition at 48 h, 100 µM in data set [8] is 33.6%.
With `COc1cc(OC)cc(/C(C#N)=C/c2cccc3ccccc23)c1`, the negative logarithm of the IC50 (pIC50) in data set [1] is 4.69; in data set [2], less than 4.00; in [3] it was 4.58. The concentration for half-maximal inhibition (IC50) at 48 h in data set [4] is 73.6 µM. Besides, the “Ratio IC50” value in data set [9] is reported as 3.59; in data set [10], 2.78. Further, the inhibition of growth at 100 µM in data set [6] is 44.9%.
For `COc1cc(OC)cc(/C(C#N)=C/c2ccccc2F)c1`, the pIC50 in data set [1] was 4.91; in data set [2] it was less than 4.00; in data set [3], 4.14. Moreover, in data set [4], the half-maximal inhibitory concentration (IC50) at 48 h is greater than 100 µM. The “Ratio IC50” value is recorded as greater than 8.19 in data set [9] and greater than 1.38 in data set [10]. Moreover, the inhibition of growth at 100 µM in data set [6] is 44.4%. Also, in [8], the inhibition at 48 h, 100 µM was determined as 34.6%.
`COc1cc(OC)cc(/C(C#N)=C/c2ccc(N(C)C)cc2)c1`: the figures for the pIC50 in [1], in data set [2] and in data set [3] were 6.23, less than 4.00 and 5.76, respectively. The IC50 at 48 h in data set [4] is greater than 100 µM. For the same compound, the “Ratio IC50” value is reported as greater than 169.49 in data set [9] and greater than 57.47 in data set [10]. The inhibition of growth at 100 µM in data set [6] was found to be 44.4%. For the same compound, the inhibition at 48 h, 100 µM in [8] is 26.8%.
Regarding `COc1cc(OC)cc(/C(C#N)=C/c2ccco2)c1`, the negative logarithm of the IC50 (pIC50) in data set [1] is 5.48; in [2], 3.95; in [3], 4.12. In data set [4], the IC50 at 48 h is greater than 100 µM. Further, the figures for the “Ratio IC50” value in [9] and in data set [10] were greater than 30.21 and greater than 1.32, respectively. In addition, in data set [8], the inhibition at 48 h, 100 µM was found to be 38.5%.
`COc1cc(OC)cc(/C(C#N)=C/c2ccccc2Br)c1`: the pIC50 is 5.07 in [1], less than 4.00 in data set [2] and less than 4.00 in data set [3]. In data set [4], the half-maximal inhibitory concentration (IC50) at 48 h is greater than 100 µM. Besides, the “Ratio IC50” value in data set [9] was greater than 11.84. In addition, the inhibition of growth at 100 µM is 37.2% in data set [6] and 17.4% in [7]. In addition, the inhibition at 48 h, 100 µM in data set [8] is 8.2%.
Take `COc1cc(OC)cc(/C(C#N)=C/c2ccc(C(F)(F)F)cc2)c1`: the pIC50 is 4.66 in data set [1], less than 4.00 in [2] and 4.56 in data set [3]. Also, the concentration for half-maximal inhibition (IC50) at 48 h in data set [4] was greater than 100 µM. The “Ratio IC50” value in [9] is on record as greater than 4.58; in [10], greater than 3.62. In addition, in data set [6], the inhibition of growth at 100 µM turned out to be 48.2%. In addition, the inhibition at 48 h, 100 µM in data set [8] worked out at 22.9%.
Regarding `COc1cc(OC)cc(/C(C#N)=C/c2ccccn2)c1`, the values for the pIC50 in [1], in [2] and in [3] were 5.29, 4.25 and 4.09, respectively. For the same compound, in data set [4], the half-inhibitory concentration (IC50) at 48 h came to 75.5 µM. Besides, the “Ratio IC50” value stood at 14.66 in [9] and 0.94 in data set [10].
Take `CCCOc1ccc(/C=C(\C#N)c2cc(OC)cc(OC)c2)cc1`: the values for the pIC50 in data set [1], in data set [2] and in data set [3] were 4.85, less than 4.00 and 4.38, respectively. The IC50 at 48 h in data set [4] is greater than 100 µM. In addition, the “Ratio IC50” value in data set [9] is listed as greater than 7.06; in [10] it was greater than 2.38. In data set [6], the inhibition of growth at 100 µM was found to be 27.6%. In addition, the inhibition at 48 h, 100 µM in data set [8] turned out to be 34.4%.
Consider `COc1cc(OC)cc(/C(C#N)=C/c2ccccc2Cl)c1`, for which the pIC50 was 5.06 in data set [1], 4.55 in data set [2] and 4.55 in [3]. In addition, in data set [4], the IC50 at 48 h is greater than 100 µM. Also, the figures for the “Ratio IC50” value in data set [9] and in [10] were greater than 11.57 and greater than 3.51, respectively. Moreover, in data set [8], the inhibition at 48 h, 100 µM worked out at 11.8%.
